Like-named read-outs stand apart in the source and are kept apart here. Square brackets hold non-standard residues; d marks the D form. Peptide text beside a SMILES is read from it. * marks the point of attachment. X1 = O=C(COc1ccc(/C=C/C2=[N+]3C(=Cc4ccc(-c5cccs5)n4[B-]3(F)F)C=C2)cc1)*; Propanoyl(3-Pip(4-O-2-BnPh)) = O=C(CCN1CCC(Oc2ccccc2Cc2ccccc2)CC1)*; X3 = Cc1cc(C)n2c1C=C1C=CC(/C=C/c3ccc(OCC(=O)*)cc3)=[N+]1[B-]2(F)F; BODIPY(FL) = CC1=CC(C)=[N+]2C1=Cc1ccc(CCC(=O)*)n1[B-]2(F)F; X2 = O=C(CCC1=[N+]2C(=Cc3ccc(-c4cccs4)n3[B-]2(F)F)C=C1)*; βAla = NCCC(=O)O

The term Kd denotes a measure of binding affinity in units of concentration. Low readings indicate a tighter complex, high ones a looser complex. A word on the pKD: it is the KD on a negative log10 scale, so that one unit is a factor of ten. Lower therefore signals a large KD.

The target of one test is T1, human H1R (Homo sapiens, UniProt P35367).
T1 construct: expressed in transfected cells; host or cells: CHO cells
Put plainly: Ca2+ mobilization assay on human H1R-expressing CHO cells. The format is cell-based. Conditions: Gaddum equation, shift in histamine EC25 with 1 μM antagonist. As for the experimental part:
CHO cells expressing H1R were grown to confluence in black-walled, clear-bottom 96-well plates. On the day of the experiment, media were replaced with 100 μL of HBSS containing […], 2.3 μM Fluo-4AM (Invitrogen), 0.023% Pluronic F-127, 0.5 mM Brilliant Black BN, and 1 μM required fluorescent ligand and the plates incubated for 1 h at 37 °C in the dark. The plates were then placed in the multi-well fluorometric imaging plate reader FlexStation3 (Molecular Devices, Sunnyvale, CA) and HBSS only or HBSS containing the required concentration of histamine was added after 15 s. Fluo-4 fluorescence was measured at 520 nm (excitation at 485 nm) every 1.52 s for 200 s. For each well, the peak maximum–minimum–maximum change in fluorescence value was taken and plotted against concentration of histamine to give a dose–response curve.
Estimated affinity values (pKB) were calculated from the shift in agonist concentration–response curves in the presence of the fluorescent antagonists using the Gaddum equation (7): [drawing 10] 7 where DR (dose ratio) is the ratio of the agonist concentration required to stimulate an identical response in the presence and absence of antagonist, [B]. DR was determined from the EC25 value as there was a decrease in observed maximal efficacy of histamine in the presence of all 10 fluorescent antagonists.
(In general: Calcium flux is commonly read through the fluorescence of an indicator in the cells.)

In another test the target is Nluc-H1R (Homo sapiens, UniProt P35367). Put plainly: NanoBRET saturation binding assay on Nluc-H1R expressing HEK293T cells. Details: expressed in transfected cells. The settings on record: saturation binding curves, whole HEK293T cells; for pKD: non-specific with 10 μM mepyramine, mean ± SEM. An excerpt: Total and non-specific saturation binding curves from NanoBRET saturation binding assay were fitted simultaneously using eq 1: [drawing 4] 1 where Bmax is the maximal specific binding, [B] is the concentration of fluorescent ligand in nM, KD is the equilibrium dissociation constant in nM, M is the slope of the non-specific component, and C is the intercept with the Y axis.
In general terms: BRET reads energy transfer from a luciferase to a nearby fluorophore.

Where [1] appears, read: mean ± SEM, four experiments, read-out: pKB (converted).

T1 sequence (P35367 whole entry): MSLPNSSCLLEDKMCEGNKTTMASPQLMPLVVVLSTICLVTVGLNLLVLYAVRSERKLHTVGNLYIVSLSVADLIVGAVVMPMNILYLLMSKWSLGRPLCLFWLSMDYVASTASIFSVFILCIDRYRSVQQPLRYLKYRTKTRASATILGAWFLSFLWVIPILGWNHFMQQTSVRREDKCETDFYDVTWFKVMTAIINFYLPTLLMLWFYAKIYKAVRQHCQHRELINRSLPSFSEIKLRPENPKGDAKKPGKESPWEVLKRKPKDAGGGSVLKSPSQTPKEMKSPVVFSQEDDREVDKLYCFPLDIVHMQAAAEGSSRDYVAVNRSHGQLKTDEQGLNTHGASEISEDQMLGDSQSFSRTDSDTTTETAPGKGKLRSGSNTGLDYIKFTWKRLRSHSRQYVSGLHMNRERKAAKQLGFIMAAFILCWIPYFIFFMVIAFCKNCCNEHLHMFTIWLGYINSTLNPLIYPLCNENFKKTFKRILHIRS
Chain of Nluc-H1R (P35367 whole entry): as above

For `Cc1cc(C)n2c1C=C1C=CC(/C=C/c3ccc(OCC(=O)NCCCC[C@H](NC(=O)CCNC(=O)[C@H](CC(N)=O)NC(=O)[C@H](CO)NC(=O)[C@@H](NC(=O)CCN4CCC(Oc5ccccc5Cc5ccccc5)CC4)C(C)C)C(N)=O)cc3)=[N+]1[B-]2(F)F` [Compound 38b, (S)-N^1-(3-(((S)-1-Amino-6-(2-(4-((E)-2-(5,5-difluoro-7,9-dimethyl-5H-5λ^4,6λ^4-dipyrrolo[1,2-c:2’,1’-f][1,3,2]diazaborinin-3-yl)vinyl)phenoxy)acetamido)-1-oxohexan-2-yl)amino)-3-oxopropyl)-2-((S)-2-((S)-2-(3-(4-(2-benzylphenoxy)piperidin-1-yl)propanamido)-3-methylbutanamido)-3-hydroxypropanamido)succinamide] ({Propanoyl(3-Pip(4-O-2-BnPh))}-VSN[βAla]K(X3)-NH2), the Kb on human H1R (setting [1]) is 110 nM. In addition, at Nluc-H1R, the dissociation constant (Kd) was 66 nM and the pKD came out at 7.18 ± 0.11.
In the case of `Cc1cc(C)n2c1C=C1C=CC(CCC(=O)NCCCC[C@H](NC(=O)CCNC(=O)[C@H](CC(N)=O)NC(=O)[C@H](CO)NC(=O)[C@@H](NC(=O)CCN3CCC(Oc4ccccc4Cc4ccccc4)CC3)C(C)C)C(N)=O)=[N+]1[B-]2(F)F` [Compound 38d, (S)-N^1-(3-(((S)-1-Amino-6-(3-(5,5-difluoro-7,9-dimethyl-5H-4λ^4,5λ^4-dipyrrolo[1,2-c:2’,1’-f][1,3,2]diazaborinin-3-yl)propanamido)-1-oxohexan-2-yl)amino)-3-oxopropyl)-2-((S)-2-((S)-2-(3-(4-(2-benzylphenoxy)piperidin-1-yl)propanamido)-3-methylbutanamido)-3-hydroxypropanamido)succinamide] ({Propanoyl(3-Pip(4-O-2-BnPh))}-VSN[βAla]K(BODIPY(FL))-NH2), the Kb at human H1R (read-out: KB (converted)) was 112 nM. Moreover, at Nluc-H1R, the Kd was 1290 nM and the pKD is 5.89 ± 0.10.
For `C[C@H](NC(=O)[C@H](C)NC(=O)[C@H](Cc1ccccc1)NC(=O)CCN1CCC(Oc2ccccc2Cc2ccccc2)CC1)C(=O)NCCC(=O)N[C@@H](CCCCNC(=O)CCC1=[N+]2C(=Cc3ccc(-c4cccs4)n3[B-]2(F)F)C=C1)C(N)=O` [Compound 39c, (S)-2-((6S,9S,12S)-12-Benzyl-16-(4-(2-benzylphenoxy)piperidin-1-yl)-6,9-dimethyl-5,8,11,14-tetraoxo-4,7,10,13-tetraazahexadecanamido)-6-(3-(5,5-difluoro-7-(thiophen-2-yl)-5H-5λ^4,6λ^4-dipyrrolo[1,2-c:2’,1’-f][1,3,2]diazaborinin-3-yl)propanamido)hexanamide] ({Propanoyl(3-Pip(4-O-2-BnPh))}-FAA[βAla]K(X2)-NH2) the same measures were 363 nM, 724 nM and 6.14 ± 0.06.
In the case of `Cc1cc(C)n2c1C=C1C=CC(CCC(=O)NCCCC[C@H](NC(=O)CCNC(=O)[C@H](C)NC(=O)[C@H](C)NC(=O)[C@H](Cc3ccccc3)NC(=O)CCN3CCC(Oc4ccccc4Cc4ccccc4)CC3)C(N)=O)=[N+]1[B-]2(F)F` [Compound 39d, (S)-2-((6S,9S,12S)-12-Benzyl-16-(4-(2-benzylphenoxy)piperidin-1-yl)-6,9-dimethyl-5,8,11,14-tetraoxo-4,7,10,13-tetraazahexadecanamido)-6-(3-(5,5-difluoro-7,9-dimethyl-5H-4λ^4,5λ^4-dipyrrolo[1,2-c:2’,1’-f][1,3,2]diazaborinin-3-yl)propan-amido)hexanamide] ({Propanoyl(3-Pip(4-O-2-BnPh))}-FAA[βAla]K(BODIPY(FL))-NH2), the Kb at human H1R (setting [1]) was 34.7 nM. On Nluc-H1R, this molecule gave a Kd of 1440 nM and a pKD of 5.84 ± 0.13.
On to `CC(C)[C@H](NC(=O)CCN1CCC(Oc2ccccc2Cc2ccccc2)CC1)C(=O)N[C@@H](CO)C(=O)N[C@@H](CC(N)=O)C(=O)NCCC(=O)N[C@@H](CCCCNC(=O)CCC1=[N+]2C(=Cc3ccc(-c4cccs4)n3[B-]2(F)F)C=C1)C(N)=O` [Compound 38c, (S)-N^1-(3-(((S)-1-Amino-6-(3-(5,5-difluoro-7-(thiophen-2-yl)-5H-5λ^4,6λ^4-dipyrrolo[1,2-c:2’,1’-f][1,3,2]diazaborinin-3-yl)propanamido)-1-oxohexan-2-yl)amino)-3-oxopropyl)-2-((S)-2-((S)-2-(3-(4-(2-benzylphenoxy)piperidin-1-yl)propanamido)-3-methylbutanamido)-3-hydroxypropanamido)succinamide] ({Propanoyl(3-Pip(4-O-2-BnPh))}-VSN[βAla]K(X2)-NH2), for which the Kb on human H1R (read-out: KB (converted)) is 302 nM. At Nluc-H1R, this molecule showed a dissociation constant (Kd) of 209 nM and a pKD of 6.68 ± 0.10.
Take `C[C@H](NC(=O)[C@H](C)NC(=O)[C@H](Cc1ccccc1)NC(=O)CCN1CCC(Oc2ccccc2Cc2ccccc2)CC1)C(=O)NCCC(=O)N[C@@H](CCCCNC(=O)CCCCC[N+]1=C(/C=C/C=C/C=C2/N(C)c3ccc(S(=O)(=O)[O-])cc3C2(C)C)C(C)(C)c2cc(S(=O)(=O)O)ccc21)C(N)=O` [Compound 39f, 1-((5S,8S,11S,18S)-5-Benzyl-1-(4-(2-benzylphenoxy)piperidin-1-yl)-18-carbamoyl-8,11-dimethyl-3,6,9,12,16,24-hexaoxo-4,7,10,13,17,23-hexaazanonacosan-29-yl)-3,3-dimethyl-2-((1E,3E)-5-((E)-1,3,3-trimethyl-5-sulfonatoindolin-2-ylidene)penta-1,3-dien-1-yl)-3H-indol-1-ium-5-sulfonate]: the Kb on human H1R (read-out: KB (converted)) is 813 nM. Also, at Nluc-H1R, binding was put at a Kd of 2190 nM and the negative logarithm of the KD (pKD) worked out at 5.66 ± 0.06.
At Nluc-H1R, `C[C@H](NC(=O)[C@@H](NC(=O)CCN1CCC(Oc2ccccc2Cc2ccccc2)CC1)[C@@H](C)O)C(=O)N[C@@H](Cc1ccc(O)cc1)C(=O)NCCC(=O)N[C@@H](CCCCNC(=O)COc1ccc(/C=C/C2=[N+]3C(=Cc4ccc(-c5cccs5)n4[B-]3(F)F)C=C2)cc1)C(N)=O` [Compound 31h, (S)-2-((6S,9S,12S)-16-(4-(2-Benzylphenoxy)piperidin-1-yl)-6-(4-hydroxybenzyl)-12-((R)-1-hydroxyethyl)-9-methyl-5,8,11,14-tetraoxo-4,7,10,13-tetraazahexadecanamido)-6-(2-(4-((E)-2-(5,5-Difluoro-7-(thiophen-2-yl)-5H-5λ^4,6λ^4-dipyrrolo[1,2-c:2’,1’-f][1,3,2]diazaborinin-3-yl)vinyl)phenoxy)acetamido)hexanamide] ({Propanoyl(3-Pip(4-O-2-BnPh))}-TAY[βAla]K(X1)-NH2) had an equilibrium dissociation constant (Kd) of 6 nM and a pKD of 8.23 ± 0.17.
In the case of `CC(C)[C@H](NC(=O)CCN(C)CC/C=C1\c2ccccc2COc2ccccc21)C(=O)N[C@@H](CO)C(=O)N[C@@H](CC(N)=O)C(=O)NCCC(=O)N[C@@H](CCCn1cc(COc2ccc(/C=C/C3=[N+]4C(=Cc5ccc(-c6cccs6)n5[B-]4(F)F)C=C3)cc2)nn1)C(N)=O` [Compound 28c, (S)-N1-(3-(((S)-1-Amino-5-(4-((4-((E)-2-(5,5-difluoro-7-(thiophen-2-yl)-5H-5λ^4,6λ^4-dipyrrolo[1,2-c:2’,1’-f][1,3,2]diazaborinin-3-yl)vinyl)phenoxy)methyl)-1H-1,2,3-triazol-1-yl)-1-oxopentan-2-yl)amino)-3-oxopropyl)-2-((S)-2-((S)-2-(3-(((E)-3-(dibenzo[b,e]oxepin-11(6H)-ylidene)propyl)(methyl)amino)propanamido)-3-methylbutanamido)-3-hydroxypropanamido)succinamide], at Nluc-H1R, binding was characterised by a dissociation constant (Kd) of 19 nM and the negative logarithm of the KD (pKD) amounted to 7.72 ± 0.11.
At Nluc-H1R, `CC(C)[C@H](NC(=O)CCN1CCC(Oc2ccccc2Cc2ccccc2)CC1)C(=O)N[C@@H](CCC(=O)O)C(=O)N[C@@H](CC(N)=O)C(=O)N[C@@H](Cn1cc(COc2ccc(/C=C/C3=[N+]4C(=Cc5ccc(-c6cccs6)n5[B-]4(F)F)C=C3)cc2)nn1)C(N)=O` [Compound 22c, (S)-5-(((S)-4-Amino-1-(((S)-1-amino-3-(4-((4-((E)-2-(5,5-difluoro-7-(thiophen-2-yl)-5H-5λ^4,6λ^4-dipyrrolo[1,2-c:2’,1’-f][1,3,2]diazaborinin-3-yl)vinyl)phenoxy)methyl)-1H-1,2,3-triazol-1-yl)-1-oxopropan-2-yl)amino)-1,4-dioxobutan-2-yl)amino)-4-((S)-2-(3-(4-(2-benzylphenoxy)piperidin-1-yl)propanamido)-3-methylbutanamido)-5-oxopentanoic Acid] showed a Kd of 162 nM and a pKD of 6.79 ± 0.04.

These data come from publication PMC9234962, “Optimization of Peptide Linker-Based Fluorescent Ligands for the Histamine H1 Receptor” (Journal of Medicinal Chemistry, 2022).
